This note sets out measurements from US20240059703A1 (AMGEN INC., priority 2021, published 2024).

A value given as a limit tells only on which side of the number the result lay.

For test [1], the system named is A549 (human lung carcinoma) cells. Nature of the test: Cell Viability Assay (CellTiter-Glo), A549. It is filed as cell-based. As to conditions: Homo sapiens, A549, 72 h. The gist of the method: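 MIA PaCa-2 or A549 cells in RPMI 1640 with 10% FBS were seeded at 1.67E+04 cells/mL and incubated overnight. Serially diluted compound was then added for 72 h at 37° C, 5% CO2. Viability read by CellTiter-Glo luminescence, normalized to DMSO, with IC50 from a 4-parameter logistic fit.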

For the next test, the target named is KRAS G12C (Homo sapiens (Human), UniProt P01116, C118A/G12C). The test can be described thus: 2 h coupled exchange assay. To be noted: Avg 2 h Coupled exchange IC50, 2 h compound pre-incubation. It is filed as biochemical. On the procedure: The term “2 h coupled exchange assay” or “20 h coupled exchange assay” as used herein refers to the assay described in the Section entitled “BIOLOGICAL EVALUATION.”
KRAS G12C, sequence (P01116 other isoform, or with tags, fused parts or gaps G12C/C118A): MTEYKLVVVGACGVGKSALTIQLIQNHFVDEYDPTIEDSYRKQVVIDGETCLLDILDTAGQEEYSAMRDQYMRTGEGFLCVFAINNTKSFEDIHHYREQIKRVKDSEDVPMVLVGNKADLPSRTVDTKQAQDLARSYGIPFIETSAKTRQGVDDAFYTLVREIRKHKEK

Test [2] concerns MIA PaCa-2 (human pancreatic carcinoma) cells. Nature of the test: Cell Viability Assay (CellTiter-Glo), MIA PaCa-2. Type of test: cell-based. As to conditions: Homo sapiens, MIA PaCa-2, 72 h. On the procedure:
Serially-diluted compound or DMSO was added to the cells, and plates were incubated at 37° C., 5% CO2 for 72 h. Cell viability was measured using a CellTiter-Glo® Luminescent Cell Viability Assay kit (Promega) according to the manufacturer's protocol. The luminescence signal of treated samples was normalized to DMSO control, and data were analyzed using a 4-parameter logistic model to calculate IC50 values.

Setting [3] is: SOS-mediated nucleotide exchange.

Consider `C=CC(=O)N1CC2(CCN(c3nc4c(c(-c5cccc(F)c5F)c3C#N)CCC(c3scnc3C)=C4)C2)C1` [Example 23-46, 4-(2,3-difluorophenyl)-7-(4-methyl-1,3-thiazol-5-yl)-2-(2-(2-propenoyl)-2,6-diazaspiro[3.4]octan-6-yl)-5,6-dihydro-3-quinolinecarbonitrile], for which the IC50 in test [1] amounted to 5370 nM; against KRAS G12C, 114 nM; in test [2], 1500 nM.

As for `C=CC(=O)N1CC2(CCN(c3nc4c(c(-c5c(C)ccc6cnn(C)c56)n3)CCCC4)C2)C1` [Example 1-25, 1-(6-(4-(1,6-dimethyl-1H-indazol-7-yl)-5,6,7,8-tetrahydro-2-quinazolinyl)-2,6-diazaspiro[3.4]octan-2-yl)-2-propen-1-one], the IC50 was 20300 nM in test [1], 2600 nM against KRAS G12C (setting [3]) and 8860 nM in test [2].

As to `C=CC(=O)N1CC2(CCN(c3nc4c(c(-c5cccc(C)c5Cl)n3)CCCC4)C2)C1` [Example 1-27, 1-(6-(4-(2-chloro-3-methylphenyl)-5,6,7,8-tetrahydro-2-quinazolinyl)-2,6-diazaspiro[3.4]octan-2-yl)-2-propen-1-one], the IC50 in test [1] stood at 20800 nM; on KRAS G12C (setting [3]), 5170 nM; in test [2], 11800 nM.

Take `C=CC(=O)N1CC2(CCN(c3nc4c(c(-c5cc(O)ccc5Cl)c3C)CCN(C3CCCN(C)C3)C4)C2)C1` [Example 18-11, 1-(6-(4-(2-chloro-5-hydroxyphenyl)-3-methyl-7-((3R)-1-methyl-3-piperidinyl)-5,6,7,8-tetrahydro-1,7-naphthyridin-2-yl)-2,6-diazaspiro[3.4]octan-2-yl)-2-propen-1-one|1-(6-(4-(2-chloro-5-hydroxyphenyl)-3-methyl-7-((3S)-1-methyl-3-piperidinyl)-5,6,7,8-tetrahydro-1,7-naphthyridin-2-yl)-2,6-diazaspiro[3.4]octan-2-yl)-2-propen-1-one]: the IC50 is over 5000 nM in test [1], 167 nM on KRAS G12C and 174 nM in test [2].

In the case of `C=CC(=O)N1CC2(CCN(c3nc4c(c(-c5cccc(F)c5O)c3C)CC[C@H](c3c(C)cnn3C)C4)C2)C1` [Example 14-95, 1-(6-((7S)-7-(1,4-dimethyl-1H-pyrazol-5-yl)-4-(3-fluoro-2-hydroxyphenyl)-3-methyl-5,6,7,8-tetrahydro-2-quinolinyl)-2,6-diazaspiro[3,4]octan-2-yl)-2-propen-1-one], the IC50 was determined as 15400 nM in test [1], 687 nM at KRAS G12C and 3350 nM in test [2].

For `C=CC(=O)N1CC2(CCN(c3nc4c(c(-c5cc(O)ccc5Cl)c3C#N)C3CCC4N(C(C)C)C3)C2)C1` (stereo not drawn) [Example 21-26], the values for the 50% inhibitory concentration (IC50) (in test [1]; at KRAS G12C; in test [2]) were 18400 nM, 334 nM and 337 nM, respectively.

Take `C=CC(=O)N1CC2(CCN(c3nc4c(c(-c5cc(O)ccc5C)c3C)CCC(C)(C)C4)C2)C1` [Example 2-62, 1-(6-(4-(5-hydroxy-2-methylphenyl)-3,7,7-trimethyl-5,6,7,8-tetrahydro-2-quinolinyl)-2,6-diazaspiro[3,4]octan-2-yl)-2-propen-1-one]: the IC50 in test [1] is over 5000 nM; on KRAS G12C (setting [3]), 186 nM; in test [2], 1270 nM.

Turning to `C=CC(=O)N1CC2(CCN(c3nc4cc(-c5ccnn5C)ccc4c(-c4cc(O)ccc4Cl)c3C)C2)C1` [Example 16-9, 1-(6-(4-(2-chloro-5-hydroxyphenyl)-3-methyl-7-(1-methyl-1H-pyrazol-5-yl)-2-quinolinyl)-2,6-diazaspiro[3.4]octan-2-yl)-2-propen-1-one], the half-inhibitory concentration (IC50) in test [1] is over 5000 nM; against KRAS G12C, 60 nM; in test [2], 1330 nM.

On to `C=CC(=O)N1CC2(CCN(c3nc4cc(-c5scnc5C)ccc4c(-c4c(C)ccc5[nH]ncc45)c3C)C2)C1` [Example 15-3, 1-(6-(3-methyl-4-(5-methyl-1H-indazol-4-yl)-7-(4-methyl-1,3-thiazol-5-yl)-2-quinolinyl)-2,6-diazaspiro[3.4]octan-2-yl)-2-propen-1-one], for which the IC50 is over 5000 nM in test [1], 62 nM against KRAS G12C and 1120 nM in test [2].
